Results as given in patent publication US11066384B2, “Crystalline forms of ARN-509, preparation method and use thereof” (Crystal Pharmaceutical (Suzhou) Co., Ltd., priority 2018, dated 2021).
Entries after “also recorded” stand apart in the source; their conditions may differ. Like-named read-outs stand apart in the source and are kept apart here.

Columns and labels:
[1] = Kinetic solubility of Form CS8, Form A and Form B in pH 1.0-6.8 media (HPLC); format: physicochemical
Experimental: The HPLC method parameters for solubility test in the present disclosure are as follows:
1. Column: Waters XBridge C18 150×4.6 mm, 5 μm
2. Mobile Phase: A: 0.1% TFA in H2O • B: 0.1% TFA in Acetonitrile
4. Injection Volume: 5 μL
5. Detection wavelength: 242 nm
6. Column Temperature: 40° C.
Different parts of the human body have different acidity (pH 1.0-8.0). The pH in stomach is 1.0-2.0, and the pH in the small intestine is 4.0-7.0. The stomach and small intestine are the key organs for drug dissolution and absorption, so measuring the dynamic solubility of a drug in a medium with pH 1.0-7.0 plays an important role in predicting the in vivo bioavailability.
About 20 mg of Form CS8, Form A and Form B of the prior art were suspended into 2.0 mL of 0.1 mol/L HCl aqueous solution (pH=1.0), 2.0 mL of acetic acid buffer solution (PH=4.5) and 2.0 mL of phosphate buffer solution (pH=6.8) to make suspensions. After equilibrated for 15 minutes, 30 minutes, and 1 hour, concentrations (μg/mL) of the saturated solutions were measured by HPLC.

[2] = Compressibility: tensile strength of compacts; format: physicochemical; settings: 80 mg, φ6 mm round tooling, 10 KN; for Diameter / Hardness / Thickness: after 24 h at room temperature; for Tensile strength: T=2H/πDL
Experimental: 80 mg of Form CS8, Form A and Form B of the prior art were weighed and added into the dies of φ6 mm round tooling, compressed at 10 KN manually, then stored at room temperature for 24 h until complete elastic recovery. Hardness (H) was tested with an Intelligent Tablet Hardness Tester. Diameter (D) and thickness (L) were tested with a caliper. Tensile strength of the powder was calculated with the following formula: T=2H/πDL. Under a certain force, the greater the tensile strength, the better the compressibility.

[3] = Mechanical stability: manual grinding for 5 minutes (XRPD); format: physicochemical; settings: ground manually for 5 minutes in a mortar
Experimental: Form CS8, Form A and Form B of the prior art were ground manually for 5 minutes in a mortar, XRPD patterns were collected before and after gridding. The XRPD pattern overlay of Form CS8, Form A and Form B of the prior art are depicted in FIG. 17, FIG. 18 and FIG. 19.

[4] = Particle size distribution (laser particle size analyzer); format: physicochemical; settings: Isopar G containing 0.2% lecithin
Experimental: The particle size distribution data in the present disclosure were acquired by an […] laser particle size analyzer of Microtrac. Microtrac […] is equipped with an SDC (Sample Delivery Controller). The test is carried out in wet mode, and the dispersion medium is Isopar G. The laser particle size analyzer parameters are as follows: [table] Approximately 20 mg of Form CS8, Form A and Form B of the prior art were added into 10 mL of Isopar G (containing 0.2% lecithin). The mixture was mixed thoroughly and transferred into the SDC. The measurement was started when the sample amount indicator is in appropriate position. The average particle diameter calculated by volume, the diameter at which 10% mass is comprised of smaller particles (D10), the diameter at which 50% mass is comprised of smaller particles (D50) and the diameter at which 90% mass is comprised of smaller particles (D90) were obtained in particle size distribution test.

[5] = Adhesiveness: material sticking to the punch; format: physicochemical; settings: 30 mg, φ8 mm round tooling, 10 KN, held 30 s
Experimental: Approximately 30 mg of Form CS8, Form A and Form B of the prior art were weighed and then added into the dies of φ8 mm round tooling, compressed at 10 KN and held for 30 s. The punch was weighed and amount of material sticking to the punch was calculated. The compression was repeated twice and the cumulative amount, maximum amount and average amount of material sticking to the punch during compression process were recorded.

[6] = cited from earlier work
[7] = 0.1 mol/L HCl aqueous solution pH=1.0, equilibrated 15 min
[8] = 0.1 mol/L HCl aqueous solution pH=1.0, equilibrated 30 min
[9] = 0.1 mol/L HCl aqueous solution pH=1.0, equilibrated 1 h
[10] = acetic acid buffer solution pH=4.5, equilibrated 15 min
[11] = acetic acid buffer solution pH=4.5, equilibrated 30 min
[12] = acetic acid buffer solution pH=4.5, equilibrated 1 h
[13] = phosphate buffer solution pH=6.8, equilibrated 15 min
[14] = phosphate buffer solution pH=6.8, equilibrated 30 min
[15] = phosphate buffer solution pH=6.8, equilibrated 1 h

With CNC(=O)c1ccc(N2C(=S)N(c3cnc(C#N)c(C(F)(F)F)c3)C(=O)C23CCC3)cc1F [Form B of the prior art, 4-[7-(6-cyano-5-trifluoromethylpyridin-3-yl)-8-oxo-6-thioxo-5,7-diazaspiro[3.4]oct-5-yl]-2-fluoro-N-methylbenzamide] the “Solubility (concentration of saturated solution)” value (shortened to “Solubility”) [1, 7] was 1.2 µg/mL, the “Solubility” value [1, 8] was 1.5 µg/mL and the “Solubility” value [1, 9] was 1.3 µg/mL. The “Solubility” value [1, 10] was 1.1 µg/mL, the “Solubility” value [1, 11] was 1.4 µg/mL and the “Solubility” value [1, 12] was 1.3 µg/mL. For the same compound, the “Solubility” value [1, 13] was 1.2 µg/mL, the “Solubility” value [1, 14] was 1.0 µg/mL and the “Solubility” value [1, 15] was 0.9 µg/mL. It also gave a Diameter [2] of 6.09 mm, a Hardness [2] of 10.1 N and a Thickness [2] of 2.13 mm. For the same compound, the Tensile strength [2] was 0.50 MPa, the “Crystalline form/crystallinity after grinding” value [3] was “decreases after grinding; also recorded: Crystallinity decreased” and the D10 [4] was 12.1 μm. For the same compound, the D50 [4] was 241.7 μm, the D90 [4] was 1133 μm and the “MV (average particle diameter calculated by volume)” value [4] was 420.3 μm. For the same compound, the “Average amount of material sticking to the punch” value [5] was 0.15 mg and the “Maximum amount of material sticking to the punch” value [5] was 0.17 mg.

For CNC(=O)c1ccc(N2C(=S)N(c3cnc(C#N)c(C(F)(F)F)c3)C(=O)C23CCC3)cc1F [Form A of the prior art, 4-[7-(6-cyano-5-trifluoromethylpyridin-3-yl)-8-oxo-6-thioxo-5,7-diazaspiro[3.4]oct-5-yl]-2-fluoro-N-methylbenzamide], the “Solubility” value [1, 7] was 7.4 µg/mL, the “Solubility” value [1, 8] was 6.2 µg/mL and the “Solubility” value [1, 9] was 8.0 µg/mL. The “Solubility” value [1, 10] was 5.9 µg/mL, the “Solubility” value [1, 11] was 5.2 µg/mL and the “Solubility” value [1, 12] was 5.5 µg/mL. For the same compound, the “Solubility” value [1, 13] was 6.1 µg/mL, the “Solubility” value [1, 14] was 8.4 µg/mL and the “Solubility” value [1, 15] was 4.8 µg/mL. The Diameter [2] was 6.08 mm, the Hardness [2] was 12.3 N and the Thickness [2] was 2.10 mm. For the same compound, the Tensile strength [2] was 0.64 MPa, the “Crystalline form/crystallinity after grinding” value [3] was “transformed into amorphous after grinding; also recorded: Almost change to amorphous” and the D10 [4] was 4.22 μm. The D50 [4] was 14.81 μm, the D90 [4] was 130.4 μm and the “MV (average particle diameter calculated by volume)” value [4] was 53.51 μm. The “Average amount of material sticking to the punch” value [5] was 0.13 mg and the “Maximum amount of material sticking to the punch” value [5] was 0.19 mg.

For CNC(=O)c1ccc(N2C(=S)N(c3cnc(C#N)c(C(F)(F)F)c3)C(=O)C23CCC3)cc1F [Form I, 4-[7-(6-cyano-5-trifluoromethylpyridin-3-yl)-8-oxo-6-thioxo-5,7-diazaspiro[3.4]oct-5-yl]-2-fluoro-N-methylbenzamide], the Crystal form transformation ([6]; high humidity conditions) is given as “transform to form B”.

For CNC(=O)c1ccc(N2C(=S)N(c3cnc(C#N)c(C(F)(F)F)c3)C(=O)C23CCC3)cc1F [Form F, 4-[7-(6-cyano-5-trifluoromethylpyridin-3-yl)-8-oxo-6-thioxo-5,7-diazaspiro[3.4]oct-5-yl]-2-fluoro-N-methylbenzamide], the Crystal form transformation ([6]; ambient conditions) is listed as “transform to form A”.

For CNC(=O)c1ccc(N2C(=S)N(c3cnc(C#N)c(C(F)(F)F)c3)C(=O)C23CCC3)cc1F [Form H, 4-[7-(6-cyano-5-trifluoromethylpyridin-3-yl)-8-oxo-6-thioxo-5,7-diazaspiro[3.4]oct-5-yl]-2-fluoro-N-methylbenzamide], the Crystal form transformation ([6]; high temperature and high humidity conditions) is given as “easily transformed into form B”.
